Results as given in US20180188224A1, “METHOD FOR CONSTRUCTING A SENSORY SPACE” (CENTRE SCIENTIFIQUE ET TECHNIQUE DU BATIMENT (CSTB), priority 2015, published 2018).
Several values for one entry are separate records, joined by “and”; a condition that tells them apart may be missing. Identical values can stand only once.

What was measured:
[1] = representative compound of a primary taste; cited from earlier work
[2] = system: four non-smoking volunteers (2 men and 2 women); assay: Hedonic score, 11-point scale (0 very unpleasant to 10 very pleasant, 5 neutral); assay type: in vivo, human
Protocol: (§1) In this test, four non-smoking volunteers (2 men and 2 women) were chosen from 12 people for their performance in taste recognition. Their mean age was 32 years, ranging from 24 to 40 years. […] These four people were trained for several months to recognize and detect the four basic tastes, and also regarding the procedures of sensory and physiological analysis.
(§2) The four basic tastes (sweet, salty, sour and bitter) were used. The solutions were prepared with citric acid for the sour taste, caffeine for the bitter taste, sodium chloride for the salty taste and sucrose for the sweet taste (all purchased from Sigma Aldrich, France) in Evian water. Evian water was also used as control and blank. Each taste was prepared with the four concentrations mentioned in table 1.
(§3) The amount of solution to be tested was standardized at 10 ml. In order to impregnate the whole of the oral cavity, the subjects kept the solution in their mouth for 5 s before swallowing it.
(§4) The sessions were individual and the subjects were asked not to eat or drink anything for at least 1 h before the test. They arrived 15 min before the start of the session in order to acclimatize to the environmental conditions, in particular the temperature of the room (kept constant at 23° C.) and to be resting seated on a comfortable chair. The 16 solutions for testing and two additional samples of water containing solely Evian water, added to the references, were presented monadically following a test order determined from a “balanced incomplete block design”. During a session, 9 samples out of 18 were presented to minimize sensory fatigue. In addition, a sample of Evian was always tested as a “blank” sample in order to avoid the first-order effect (Lawless, H. T. & Heymann, H., 2010, Sensory evaluation of food: Principles and practices. Springer, New York) and was excluded from the analysis. A light signal was sent to give the instruction to test the sample. When the disturbance to the nervous system returned to its baseline level (after approximately 1 min), a second light signal indicated to the subjects that they should complete a questionnaire regarding the stimulus tested previously. The first part of the questionnaire was linked to the identification of the taste (i.e. determining the quality of the taste); the subjects had to choose between five labels: sweet, salty, sour, bitter or neutral. They then had to assign a taste intensity score on an 11-point scale (from 0 “not intense” (i.e. taste of Evian only) to 10 “very intense”) and finally to give a hedonic score on an 11-point scale (from 0 “very unpleasant” to 10 “very pleasant”, 5 being “neutral”).
(§5) This procedure was repeated for each of the 9 stimuli. A session lasted approximately 45 min including a debriefing at the end of the test to ensure understanding of the sense of the signal variations. The experiment was repeated 12 times per subject, meaning that the data are composed of 6 data sets per subject and per product and 12 data sets for the Evian product per subject. Thus, the database consists of 432 samples.
The effect of the taste on the hedonic and intensity scores was analyzed by an analysis of variance (ANOVA) including the product effect, the subject effect and the product-subject interaction. The subject effect was fixed because there were only 4 subjects and the results could only be applied to a particular schema. The differences were considered to be significant at a level of 0.05.

[3] = system: four non-smoking volunteers (2 men and 2 women); assay: Taste identification questionnaire, trained panel (count of 6 repetitions per subject in which the stimulus was given each taste label; level of recognition %); assay type: in vivo, human; settings: human, in vivo
Protocol: as §1, §2, §3, §4, §5

[4] = system: subject 3; assay: Skin blood microcirculation (SKBF) response to taste stimuli, PCA sensory space (ESRP); assay type: in vivo, human; settings: concentration 3
From the text: A Periflux PF 5010 (Perimed AB, Sweden) system was chosen, which enables non-invasive monitoring of blood perfusion in the capillaries, arterioles and venules.
The unit of blood perfusion is arbitrary and corresponds to the product of the mean rate of displacement of the red blood cells by their concentration. The system Periflux PF 5010 has a 780 nm, 1 mm diameter laser beam without thermal effect. An optical fiber probe PR407 is used. The low-energy laser beam is transmitted by the probe to the tissue. A portion of the light reflects off the static structures and another portion of the light reflects off the moving blood cells. When the light reflects off a moving cell, the wavelength is modified, which corresponds to the Doppler effect. The scattered light collected by the optical fiber is used to calculate the perfusion value. The measurement is expressed in perfusion units (PU). Recording was carried out on the pad of the index finger of the non-dominant hand, due to the high level of vascularization of this zone. The perfusion signals were recorded by an 8-channel PowerLab PL35088/35 acquisition system; the data were collected at a frequency of 1 kHz and analyzed by the LabChart® software (AD instruments Ltd, United Kingdom).
. Then, the peak was analyzed manually by selecting the whole of the peak and analyzing it with the LabChart® software (FIG. 1).
Several shape parameters were extracted from the signal (i.e. amplitude, duration, gradient). […]
The SKBF responses were analyzed individually by one-way ANOVA (product effect), the subjects having their own “preferential channel” (Lacey, J. I., Bateman, D. E. & VanLEHN, R., 1953, Autonomic response specificity: An experimental study. Psychosomatic Medicine, 15, 8-21). […]

SMILES: Cn1c(=O)c2c(ncn2C)n(C)c1=O [Caffeine, caffeine]
- detection threshold [1]: 0.05 to 0.35 g/L
- hedonic score ([2]; concentration 3): 3.5±1.8
- hedonic score ([2]; concentration 4 (highest)): 3.5±2.3
- Individual recognition score: Bitter [3]: 6 (9×) and 4 (2×) and 5 (4×) and 3
- Individual recognition score: Neutral [3]: 0 (11×) and 1 (3×) and 3 and 2
- Individual recognition score: Salty [3]: 0
- Individual recognition score: Sour [3]: 0 (14×) and 1 (2×)
- Individual recognition score: Sweet [3]: 0 (15×) and 1
- Level of Recognition %: Bitter [3]: 83% and 84%
- Level of Recognition %: Salty [3]: 0%
- Level of Recognition %: Sour [3]: 0% and 4%
- Level of Recognition %: Sweet [3]: 0% and 4%
- SKBF disturbance (signal width, area of the peak; ANOVA) [4]: significantly stronger disturbance than the others
